Measurements published in patent US8263611B2, “Hydrochloride salt of an azabicyclo[3.2.1]octane derivative” (Neurosearch A/S, priority 2007, dated 2012).
Where a name gives a salt, the structure may show the parent alone.

Test: solubility by stirred slurry, salt concentration in solution by HPLC
Assay type: physicochemical
Conditions: 25 °C, thermodynamic from solid, after 8 days stirring at 25 degC, slurry in "a volume of solvent" (solvent not named)
Description: The solubility of a sample of the hydrochloride salt of the invention was determined by adding an amount of it to a volume of solvent with stirring so as to form a slurry. The slurry was stirred at 25 degC. The stirred slurry was tested at regular intervals (i.e. 1, 3, 6 and 8 days) until the concentration of the salt in solution was substantially constant. HPLC was used to determine the salt concentration in solution.

With `COCC1C2CCC(CC1c1ccc(Cl)c(Cl)c1)N2` [salt of the invention, hydrochloride salt of (1R,2R,3S,5S)-3-(3,4-dichlorophenyl)-2-[(methyloxy)methyl]-8-azabicyclo[3.2.1]octane] the solubility at 8 days was 438 mg/mL.
